Measured values from ChEMBL document CHEMBL1201862, “PubChem BioAssay data set” (2004).
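Five concentrations, 48 hours, 96-well plates. GI50 is the concentration that inhibits growth by half.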 The source made the active and inactive calls. No stated cut-off is given here; in the data, active = GI50 up to about 1.1 µM and inactive = higher.

Legend:
Assay in all cases: NCI tumour cell line growth inhibition, 48 h
[1] = system: 786-0
[2] = system: A498
[3] = system: A549
[4] = system: ACHN
[5] = system: BT-549
[6] = system: CAKI-1
[7] = system: CCRF-CEM
[8] = system: COLO 205
[9] = system: DU-145
[10] = system: EKVX
[11] = system: HCC 2998
[12] = system: HCT-116
[13] = system: HCT-15
[14] = system: HL-60
[15] = system: HOP-62
[16] = system: HOP-92
[17] = system: HT-29
[18] = system: Hs-578T
[19] = system: IGROV-1
[20] = system: K562
[21] = system: KM12
[22] = system: LOX IMVI
[23] = system: M14
[24] = system: MCF7
[25] = system: MDA-MB-231
[26] = system: MDA-MB-435
[27] = system: MDA-N
[28] = system: MOLT-4
[29] = system: Malme-3M
[30] = system: NCI-H226
[31] = system: NCI-H23
[32] = system: NCI-H460
[33] = system: NCI-H522
[34] = system: NCI/ADR-RES
[35] = system: OVCAR-3
[36] = system: OVCAR-4
[37] = system: OVCAR-5
[38] = system: OVCAR-8
[39] = system: PC-3
[40] = system: RPMI-8226
[41] = system: RXF 393
[42] = system: SF-268
[43] = system: SF-295
[44] = system: SF-539
[45] = system: SK-MEL-28
[46] = system: SK-MEL-2
[47] = system: SK-MEL-5
[48] = system: SK-OV-3
[49] = system: SN12C
[50] = system: SNB-19
[51] = system: SNB-75
[52] = system: SR
[53] = system: SW-620
[54] = system: T47D
[55] = system: TK-10
[56] = system: U-251
[57] = system: UACC-257
[58] = system: UACC-62
[59] = system: UO-31

CC1c2cc(c3c(c2O)CN([C@@H](C)C2CCCCC2)CO3)C(C)c2cc(c3c(c2O)CN([C@@H](C)C2CCCCC2)CO3)C(C)c2cc(c3c(c2O)CN([C@@H](C)C2CCCCC2)CO3)C(C)c2cc1c1c(c2O)CN([C@@H](C)C2CCCCC2)CO1 (some centres not stated)
GI50 [1]: 1.13 µM (inactive) | GI50 [2]: 2.06 µM (inactive) | GI50 [3]: 1.84 µM (inactive) | GI50 [4]: 1.47 µM (inactive) | GI50 [5]: 1.77 µM (inactive) | GI50 [6]: 1.6 µM (inactive) | GI50 [7]: 0.34 µM (active) | GI50 [8]: 1.36 µM (inactive) | GI50 [9]: 1.35 µM (inactive) | GI50 [10]: 1.06 µM (active) | GI50 [11]: 1.45 µM (inactive) | GI50 [12]: 1.06 µM (active) | GI50 [13]: 1.51 µM | GI50 [14]: 0.152 µM (active) | GI50 [15]: 1.97 µM (inactive) | GI50 [16]: 1.45 µM (inactive) | GI50 [17]: 0.277 µM (active) | GI50 [18]: 1.35 µM (inactive) | GI50 [19]: 1.32 µM (inactive) | GI50 [20]: 0.369 µM (active) | GI50 [21]: 0.838 µM (active) | GI50 [22]: 0.681 µM (active) | GI50 [23]: 2.3 µM (inactive) | GI50 [24]: 1.36 µM (inactive) | GI50 [25]: 1.31 µM (inactive) | GI50 [26]: 1.8 µM (inactive) | GI50 [27]: 0.849 µM (active) | GI50 [28]: 1.34 µM (inactive) | GI50 [29]: 1.45 µM (inactive) | GI50 [30]: 0.979 µM (active) | GI50 [31]: 1.5 µM (inactive) | GI50 [32]: 1.28 µM (inactive) | GI50 [33]: 0.607 µM (active) | GI50 [34]: 1.27 µM (inactive) | GI50 [35]: 1.71 µM (inactive) | GI50 [36]: 929 nM (active) | GI50 [37]: 1.78 µM (inactive) | GI50 [38]: 1.15 µM (inactive) | GI50 [39]: 1.77 µM (inactive) | GI50 [40]: 0.414 µM (active) | GI50 [41]: 2.44 µM (inactive) | GI50 [42]: 1.33 µM (inactive) | GI50 [43]: 1.8 µM (inactive) | GI50 [44]: 1.77 µM (inactive) | GI50 [45]: 1.76 µM (inactive) | GI50 [46]: 2.11 µM (inactive) | GI50 [47]: 1.84 µM (inactive) | GI50 [48]: 1.48 µM (inactive) | GI50 [49]: 0.962 µM (active) | GI50 [50]: 1.61 µM (inactive) | GI50 [51]: 1.22 µM (inactive) | GI50 [52]: 0.197 µM (active) | GI50 [53]: 0.986 µM (active) | GI50 [54]: 1.56 µM (inactive) | GI50 [55]: 1.73 µM (inactive) | GI50 [56]: 0.964 µM (active) | GI50 [57]: 1.66 µM (inactive) | GI50 [58]: 1.8 µM (inactive) | GI50 [59]: 1.81 µM (inactive)

CNC(=S)N/N=C(\C)c1nc2cccnc2[nH]1
GI50 [1]: 43.7 µM (inactive) | GI50 [2]: > 100 µM (inactive) | GI50 [3]: 31.1 µM (inactive) | GI50 [4]: 38.9 µM (inactive) | GI50 [5]: 27.9 µM (inactive) | GI50 [6]: 33.8 µM (inactive) | GI50 [7]: 24.4 µM (inactive) | GI50 [8]: 33.5 µM (inactive) | GI50 [9]: 55.2 µM (inactive) | GI50 [10]: 47 µM (inactive) | GI50 [11]: 19.1 µM (inactive) | GI50 [12]: 30 µM (inactive) | GI50 [13]: 29.2 µM | GI50 [14]: 17.6 µM (inactive) | GI50 [15]: 25.6 µM (inactive) | GI50 [16]: 20.6 µM (inactive) | GI50 [17]: 36.8 µM (inactive) | GI50 [18]: > 50 µM (inactive) | GI50 [19]: 62.7 µM (inactive) | GI50 [20]: 95.3 µM (inactive) | GI50 [21]: 46.6 µM (inactive) | GI50 [22]: 43.6 µM (inactive) | GI50 [23]: 45.2 µM (inactive) | GI50 [24]: 34.3 µM (inactive) | GI50 [25]: 42.7 µM (inactive) | GI50 [26]: 77.1 µM (inactive) | GI50 [27]: > 100 µM (inactive) | GI50 [28]: 31.9 µM (inactive) | GI50 [29]: > 70.5 µM (inactive) | GI50 [30]: 38.1 µM (inactive) | GI50 [32]: 29.9 µM (inactive) | GI50 [33]: 22.8 µM (inactive) | GI50 [34]: 15.3 µM (inactive) | GI50 [35]: 18.6 µM (inactive) | GI50 [36]: 4120 nM (inactive) | GI50 [37]: 30.8 µM (inactive) | GI50 [38]: 48.9 µM (inactive) | GI50 [39]: 48.5 µM (inactive) | GI50 [40]: 71.9 µM (inactive) | GI50 [41]: 62.2 µM (inactive) | GI50 [42]: 37.7 µM (inactive) | GI50 [43]: 30.3 µM (inactive) | GI50 [44]: 27.7 µM (inactive) | GI50 [45]: 82.6 µM (inactive) | GI50 [46]: > 63.5 µM (inactive) | GI50 [47]: 29.2 µM (inactive) | GI50 [48]: 31.8 µM (inactive) | GI50 [49]: 98.2 µM (inactive) | GI50 [50]: > 53.8 µM (inactive) | GI50 [51]: > 70.6 µM (inactive) | GI50 [52]: 28.4 µM (inactive) | GI50 [53]: 52.8 µM (inactive) | GI50 [54]: 43.5 µM (inactive) | GI50 [55]: 32.5 µM (inactive) | GI50 [56]: 39.8 µM (inactive) | GI50 [57]: 60.8 µM (inactive) | GI50 [58]: 6.34 µM (inactive) | GI50 [59]: 9.25 µM (inactive)
